Experimental data published in ChEMBL document CHEMBL3785061, “Evaluation of the anti-inflammatory action of curcumin analog (DM1): Effect on iNOS and COX-2 gene expression and autophagy pathways” (Bioorg Med Chem, 2016).
The source made the active and inactive calls. No cut-off for these calls is given here.

Key:
Mus musculus [1] = experiment: In vivo inhibition of myeloperoxidase activity in bradykinin-induced Swiss mouse peritonitis model at 1 to 100 mg/kg, ip administered prior to bradykinin challenge for 4hrs; format: functional, organism-based
Mus musculus [2] = experiment: Antiinflammatory activity in bradykinin-induced peritonitis Swiss mouse model assessed as decrease in total number of cells in pertonial cavity at 3 mg/kg, ip administered for 30 mins prior to bradykinin challenge; format: functional
Mus musculus [3] = experiment: Antiinflammatory activity against carrageenan-induced paw edema in Swiss mouse at 3 mg/kg, ip measured at 15 to 90 mins administered 30 mins prior to carrageenan-challenge by plethysmometric analysis; format: functional
Mus musculus [4] = experiment: Antiinflammatory activity against bradykinin-induced paw edema in Swiss mouse at 100 mg/kg, ip measured at 15 to 90 mins administered 30 mins prior to bradikynin-challenge by plethysmometric analysis; format: functional
Mus musculus [5] = experiment: Antiinflammatory activity against substance-P-induced paw edema in Swiss mouse at 3 mg/kg, ip measured at 15 to 90 mins administered 30 mins prior to substance p-challenge by plethysmometric analysis; format: functional
Mus musculus [6] = experiment: Antiinflammatory activity in carrageenan-induced Swiss mouse peritonitis model assessed as decrease in total number of cells in pertonial cavity at 3 mg/kg, ip administered for 4 hrs prior to carrageenan challenge; format: functional; set-up: scale not given: the % may be the effect or the level left
Mus musculus [7] = experiment: In vivo inhibition of myeloperoxidase activity in carrageenan-induced Swiss mouse peritonitis model at 1 to 100 mg/kg, ip administered prior to carrageenan challenge for 4hrs; format: functional, organism-based
Mus musculus [8] = experiment: Antiinflammatory activity in substance p-induced Swiss mouse peritonitis model assessed as decrease in total number of cells in pertonial cavity at 3 mg/kg, ip administered for 30 mins prior to substance-P challenge; format: functional
RAW264.7 [9] = experiment: Inhibition of COX2 expression in LPS-stimulated mouse RAW264.7 cells at 12.5 to 50 ug/ml preincubated with the compound followed by LPS stimulation for 24 hrs by Real-Time PCR; format: functional, cell-based
RAW264.7 [10] = experiment: Cytotoxicity against mouse RAW264.7 cells assessed as cell viability at 100 ug/ml after 24 hrs by MTT assay; format: cell-based; conditions: raw264.7, 24 h
RAW264.7 [11] = experiment: Inhibition of iNOS expression in LPS-stimulated mouse RAW264.7 cells at 12.5 to 50 ug/ml preincubated with the compound followed by LPS stimulation for 24 hrs by Real-Time PCR; format: functional, cell-based
A-375 [12] = experiment: Induction of autophagy in human A375 cells assessed as increase in LC3-2 complex concentration at 65 uM after 1 hr by Western blot analysis; format: functional, cell-based
A-375 [13] = experiment: Induction of autophagy in human A375 cells assessed as increase in LC3-2 complex concentration at 65 uM after 6 hrs by Western blot analysis; format: functional, cell-based
Mus musculus [14] = experiment: Antiinflammatory activity in carrageenan-induced Swiss mouse peritonitis model assessed as effect on total number of cells in peritonial cavity at 1 to 10 mg/kg, ip administered 30 mins prior to carrageenan challenge; format: functional, organism-based
Mus musculus [15] = experiment: Antiinflammatory activity against carrageenan-induced paw edema in Swiss mouse at 10 mg/kg, ip measured at 15 to 90 mins administered 30 mins prior to carrageenan-challenge by plethysmometric analysis; format: functional
Mus musculus [16] = experiment: Antiinflammatory activity against carrageenan-induced paw edema in Swiss mouse at 100 mg/kg, ip measured at 15 to 90 mins administered 30 mins prior to carrageenan-challenge by plethysmometric analysis; format: functional
Mus musculus [17] = experiment: Antiinflammatory activity against bradykinin-induced paw edema in Swiss mouse at 10 mg/kg, ip measured at 15 to 90 mins administered 30 mins prior to bradikynin-challenge by plethysmometric analysis; format: functional
Mus musculus [18] = experiment: Antiinflammatory activity against bradykinin-induced paw edema in Swiss mouse at 3 mg/kg, ip measured at 15 to 90 mins administered 30 mins prior to bradikynin-challenge by plethysmometric analysis; format: functional
Mus musculus [19] = experiment: Antiinflammatory activity against substance-P-induced paw edema in Swiss mouse at 10 mg/kg, ip measured at 15 to 90 mins administered 30 mins prior to substance p-challenge by plethysmometric analysis; format: functional
Mus musculus [20] = experiment: Antiinflammatory activity against substance-P-induced paw edema in Swiss mouse at 100 mg/kg, ip measured at 15 to 90 mins administered 30 mins prior to substance p-challenge by plethysmometric analysis; format: functional
Mus musculus [21] = experiment: Antiinflammatory activity in carrageenan-induced Swiss mouse peritonitis model assessed as decrease in total number of cells in pertonial cavity at 100 mg/kg, ip administered 30 mins prior to carrageenan challenge; format: functional; set-up: scale not given: the % may be the effect or the level left
Mus musculus [22] = experiment: Antiinflammatory activity in bradykinin-induced Swiss mouse peritonitis model assessed as decrease in total number of cells in pertonial cavity at 1 mg/kg, ip administered for 30 mins prior to bradykinin challenge; format: functional, organism-based
Mus musculus [23] = experiment: Antiinflammatory activity in bradykinin-induced peritonitis Swiss mouse model assessed as decrease in total number of cells in pertonial cavity at 10 mg/kg, ip administered for 30 mins prior to bradykinin challenge; format: functional
Mus musculus [24] = experiment: Antiinflammatory activity in bradykinin-induced peritonitis Swiss mouse model assessed as decrease in total number of cells in pertonial cavity at 100 mg/kg, ip administered for 30 mins prior to bradykinin challenge; format: functional
Mus musculus [25] = experiment: Antiinflammatory activity in bradykinin-induced peritonitis ip dosed Swiss mouse model assessed as decrease in total number of cells in pertonial cavity administered for 4 hrs prior to bradykinin challenge; format: functional
Mus musculus [26] = experiment: Antiinflammatory activity in substance p-induced Swiss mouse peritonitis model assessed as decrease in total number of cells in pertonial cavity at 1 to 10 mg/kg, ip administered for 30 mins prior to substance-P challenge; format: functional, organism-based
Mus musculus [27] = experiment: Antiinflammatory activity in substance p-induced Swiss mouse peritonitis model assessed as decrease in total number of cells in pertonial cavity at 100 mg/kg, ip administered for 30 mins prior to substance-P challenge; format: functional
RAW264.7 [28] = experiment: Inhibition of LPS-induced nitric oxide production in mouse RAW264.7 cells preincubated for 1 hr followed by LPS stimulation by Greiss assay; format: functional, cell-based

Q: `CC(=O)OCC(=O)[C@@]12N=C(C)O[C@@H]1C[C@H]1[C@@H]3CCC4=CC(=O)C=C[C@]4(C)[C@H]3[C@@H](O)C[C@@]12C` [DEFLAZACORT] was tested. Which inhibition (Mus musculus [1]) did it give?
A: Active

Q: What about the inhibition in vivo at 3 mg/kg (Mus musculus [2]) of the same compound?
A: 46.2%

Q: What about the inhibition in vivo at 3 mg/kg (Mus musculus [3]) of the same compound?
A: 29.2%

Q: What about the inhibition in vivo at 100 mg/kg (Mus musculus [4]) of the same compound?
A: 30.1%

Q: And the inhibition in vivo at 3 mg/kg (Mus musculus [5])?
A: 32.8%

Q: And the Activity (Mus musculus [6])?
A: 57.1%

Q: And the inhibition (Mus musculus [7])?
A: Active

Q: And the inhibition in vivo at 3 mg/kg (Mus musculus [8])?
A: 53.3%

Q: With `COc1cc(/C=C/C(=O)/C=C/c2ccc(O)c(OC)c2)ccc1[O-].[Na+]` as the compound, how does the inhibition (RAW264.7 [9]) read?
A: Active

Q: What about the Activity (RAW264.7 [10]) of the same compound?
A: Non-toxic

Q: And the inhibition (RAW264.7 [11])?
A: Active

Q: And the Activity (A-375 [12])?
A: Active

Q: What about the Activity (A-375 [13]) of the same compound?
A: inactive

Q: And the Activity (Mus musculus [14])?
A: inactive

Q: What about the inhibition (Mus musculus [1]) of the same compound?
A: Active

Q: And the inhibition in vivo at 10 mg/kg (Mus musculus [15])?
A: 17.2%

Q: And the inhibition in vivo at 100 mg/kg (Mus musculus [16])?
A: 18.9%

Q: And the inhibition in vivo at 10 mg/kg (Mus musculus [17])?
A: 30.8%

Q: What about the inhibition in vivo at 3 mg/kg (Mus musculus [18]) of the same compound?
A: 39.2%

Q: What about the inhibition in vivo at 10 mg/kg (Mus musculus [19]) of the same compound?
A: 15.4%

Q: What about the inhibition in vivo at 100 mg/kg (Mus musculus [20]) of the same compound?
A: 31.5%

Q: What about the Activity (Mus musculus [21]) of the same compound?
A: 38.4%

Q: What about the Activity (Mus musculus [22]) of the same compound?
A: inactive

Q: And the inhibition in vivo at 10 mg/kg (Mus musculus [23])?
A: 65.4%

Q: What about the inhibition in vivo at 100 mg/kg (Mus musculus [24]) of the same compound?
A: 78.8%

Q: And the ED50 (Mus musculus [25])?
A: 7.6 mg/kg

Q: What about the inhibition (Mus musculus [7]) of the same compound?
A: Active

Q: What about the Activity (Mus musculus [26]) of the same compound?
A: inactive

Q: And the inhibition in vivo at 100 mg/kg (Mus musculus [27])?
A: 40%

Q: And the IC50 (RAW264.7 [28])?
A: 7.7 µM
